This note sets out measurements from patent US20260315446A1, “ANTIFUNGAL COMPOUNDS AND USES THEREOF” (priority 2023, published 2026).

Data set [1] has as its system T follicular helper (Tfh) cells. Kind of data set: In vivo immunosuppression, T follicular helper cells (Example 1). Also noted: species or system mouse (C57BL/6). Conditions: daily i.p., FK506 5 mg/kg or JH-FK-05 60 mg/kg; day 7. The procedure:
Based on the in vitro evidence of reduced immunosuppressive activity of JH-FK-05, it was hypothesized that this reduction would translate into reduced immunosuppression in an in vivo model. The murine model for immunosuppression measures the T cell-dependent proliferation of two immune cell subtypes in response to immunization with an antigen. Animals were treated daily via intraperitoneal (i.p.) injection with vehicle, 5 mg/kg FK506, or 60 mg/kg JH-FK-05, beginning on day −1 and ending on day 7. […] On day 0, animals were immunized with NP-OVA to stimulate T cell-dependent signaling that would result in proliferation of T follicular helper (Tfh) cells and germinal center (GC) B cells. Animals were sacrificed on day 7, and the proportions of Tfh and GC B cells in the lymph nodes were measured. […]
Groups of 6 female C57BL/6 mice (Jackson Laboratory) were treated daily by intraperitoneal (i.p.) injection with about 100 μL vehicle, 5 mg/kg FK506, or 60 mg/kg JH-FK-05 beginning on day −1. […] Mice were treated and monitored daily until they were sacrificed on day 7. Draining lymph nodes were harvested on day 7, and the populations of T follicular helper cells and GC B cells were analyzed by flow cytometry. Tfh and GC B cells were measured from T Cell Receptor β (TCRβ^+) CD4^+CD44^hi cells and TCRβ^−CD19^+ cells, respectively.

Data set [2] has as its target T1, C. albicans FKBP12 and CnA-CnB-calmodulin complex (UniProt C4YFI3+C4YS24+P28870).
T1 construct: N-tagged CnA 54-609, untagged CnB and calmodulin co-expressed in Tni insect cells
The data set can be described thus: Biolayer interferometry ternary complex formation. The format is binding, Candida albicans. Conditions: BLI, 10 μM compound, steady-state and kinetic analyses. The procedure:
To better understand the relationship between structure and activity of these analogs, FK506 analog, JH-FK-02 was tested, and one FK520 analog, JH-FK-05 was tested, for their binding dynamics to CnA and CnB by biolayer interferometry (BLI). Purified and biotinylated (Avi-tagged) FKBP12 from A. fumigatus and C. albicans were loaded onto streptavidin sensors in the presence of an inhibitor, followed by titration of the respective CnA-CnB-calmodulin complex, also in the presence of an inhibitor. Data were double referenced using parallel reference sensors and sample blanks.
Biolayer interferometry (BLI) experiments were completed using either A. fumigatus or C. albicans FKBP12 and CnA/CnB/calmodulin complexes, along with compounds FK506, APX879, FK520, JH-FK-02, and JH-FK-05. Initial buffer (25 mM Tris, 200 mM NaCl, and 1 mM TCEP [pH 8.0]) was prepared using 1 M Tris-HCl (pH 8.0, catalog no. T1080; Teknova), 5 M sodium chloride (catalog no. S0251; Teknova), TCEP (catalog no. M115; Soltec Ventures, Inc.), and was readjusted to pH 8 before sterile filtering. […]
Data were processed and analyzed using ForteBio Data Analysis software version 11.1.3.10. […] Kinetics data were analyzed using the “association and dissociation curve fitting” option utilizing a 1:1 model. […]
For orientation: In BLI a coated tip is dipped into the sample, and binding shifts an interference pattern.

Structures are written as SMILES.

T1 sequence (P28870 whole entry): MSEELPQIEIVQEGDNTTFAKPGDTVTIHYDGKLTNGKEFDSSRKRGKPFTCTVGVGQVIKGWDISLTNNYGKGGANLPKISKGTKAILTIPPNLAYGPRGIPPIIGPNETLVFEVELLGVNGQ
T1 sequence (C4YFI3 54-609): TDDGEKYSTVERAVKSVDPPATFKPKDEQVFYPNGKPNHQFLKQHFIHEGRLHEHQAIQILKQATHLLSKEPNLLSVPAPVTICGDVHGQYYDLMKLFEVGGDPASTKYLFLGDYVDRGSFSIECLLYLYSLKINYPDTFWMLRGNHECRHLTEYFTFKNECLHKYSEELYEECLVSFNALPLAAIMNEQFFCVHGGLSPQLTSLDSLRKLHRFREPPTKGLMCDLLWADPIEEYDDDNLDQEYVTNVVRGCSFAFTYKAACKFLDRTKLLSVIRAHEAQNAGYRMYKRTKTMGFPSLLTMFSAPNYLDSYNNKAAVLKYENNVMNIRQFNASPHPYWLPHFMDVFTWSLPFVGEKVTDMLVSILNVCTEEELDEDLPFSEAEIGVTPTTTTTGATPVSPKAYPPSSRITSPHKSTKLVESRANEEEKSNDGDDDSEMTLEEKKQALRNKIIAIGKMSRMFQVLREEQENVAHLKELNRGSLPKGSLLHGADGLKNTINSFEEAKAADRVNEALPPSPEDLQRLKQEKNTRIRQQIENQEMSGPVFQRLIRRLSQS
T1 sequence (C4YS24 1-173): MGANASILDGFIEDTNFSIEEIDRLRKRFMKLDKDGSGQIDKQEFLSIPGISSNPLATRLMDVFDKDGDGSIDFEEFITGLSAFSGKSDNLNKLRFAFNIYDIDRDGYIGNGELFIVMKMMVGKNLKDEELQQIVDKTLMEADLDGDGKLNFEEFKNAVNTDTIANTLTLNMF
T1 sequence (P23286 whole entry partner): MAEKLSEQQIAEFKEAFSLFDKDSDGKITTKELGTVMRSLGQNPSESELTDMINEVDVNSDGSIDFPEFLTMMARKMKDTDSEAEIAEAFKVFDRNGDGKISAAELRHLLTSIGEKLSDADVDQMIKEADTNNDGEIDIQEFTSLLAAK

Consider `C=CCC1C=C(C)CC(C)CC(OC)C2OC(O)(C(=O)C(=O)N3CCCCC3C(=O)OC(C(C)=CC3CCC(O)C(OC)C3)C(C)C(O)CC1=O)C(C)CC2OC` (stereo not shown) [FK506, reference compound], for which, in data set [1], the “proliferation/presence of Tfh cells” value is on record as “significantly reduced the proliferation”. `C=CC[C@@H]1/C=C(\C)C[C@H](C)C[C@H](OC)[C@H]2O[C@@](O)(C(=O)C(=O)N3CCCC[C@H]3C(=O)O[C@H](/C(C)=C/[C@@H]3CC[C@@H](O)[C@H](OC)C3)[C@H](C)[C@@H](O)C/C1=N/NC(=O)CC)[C@H](C)C[C@@H]2OC` [JH-FK-02]: the “affinity of target complex formation in presence of analog” value in data set [2] is “affinities similar to those of the parent compounds”. Regarding `CC[C@@H]1/C=C(\C)C[C@H](C)C[C@H](OC)[C@H]2O[C@@](O)(C(=O)C(=O)N3CCCC[C@H]3C(=O)O[C@H](/C(C)=C/[C@@H]3CC[C@@H](O)[C@H](OC)C3)[C@H](C)[C@@H](O)C/C1=N/NC(C)=O)[C@H](C)C[C@@H]2OC` [JH-FK-05], the “affinity of target complex formation in presence of analog” value in data set [2] is “affinities similar to those of the parent compounds”. In addition, the “proliferation/presence of Tfh cells” value in data set [1] is “did not reduce the presence of either cell type and was statistically indistinguishable from the vehicle treatment”.
